Results reported in PMC5021751, “Discovery of DNA dyes Hoechst 34580 and 33342 as good candidates for inhibiting amyloid beta formation: in silico and in vitro study” (Journal of Computer-Aided Molecular Design, 2016).
Like-named read-outs stand apart in the source and are kept apart here.

Target: T1, Aβ42 (amyloid beta) (Homo sapiens, UniProt P05067)
T1 construct: gene APP
Assay: Thioflavin T fibrillization assay with purified Aβ[…] peptide
Assay type: biochemical

T1 sequence (P05067 672-713 limits assumed): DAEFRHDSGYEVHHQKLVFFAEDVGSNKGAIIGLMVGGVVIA

| IC50 (read-out: IC50) [nM] | Compound | IC50 [nM] |
| --- | --- | --- |
| 680 ± 50 | CCOc1ccc(-c2nc3cc(-c4nc5cc(N6CCN(C)CC6)ccc5[nH]4)ccc3[nH]2)cc1 [Hoechst 33342] | – |
| – | CN1CCN(c2ccc3[nH]c(-c4ccc5[nH]c(-c6ccc(N(C)C)cc6)nc5c4)nc3c2)CC1 [Hoechst 34580] | 860 ± 50 |
